Tests used:
[1] = tested on: cytochrome C in HLE cells; experiment: Western blot of cytochrome c release from mitochondria to cytosol; type: cell-based, human; conditions: 1.5 mM, 24 hr
Procedure: FIG. 23. (A). […] HLE cells were grown in a T75 flask and treated with DBZIM for 24 hr. The cells were then lysed and cytoplasmic protein was collected for assaying caspase 8, 9 and 3 using kits from Biovision. The data was normalized against the vehicle control. (B). […] HLE cells were treated by DBZIM of 1.5 mM for 24 hr. Cytosolic and mitochondria protein fractions were collected using a kit from Biovision. 15 μg of each protein was resolved in 4-12% gradient PAGE-SDS gel. The target proteins were recognized by antibody of cytochrome C, and visualized by the ECL method. […]
Protein extracts were prepared by lysing cell pellet in RIPA buffer (Pierce, Ill., USA) for total protein extract, or in NE-PER reagent from Pierce (Pierce, Ill., USA) for nuclear and cytoplasmic fractions, or in a Kit from BioVision (CA, USA) for mitochondria and cytosol fractions. Protein content was quantified using BCA Kit (Pierce, Ill., USA). […] The membrane was then probed with primary antibodies against Bcl-XL, Bak, Bcl-2α, Bax (Lab Vision Corp., CA, USA), survivin, xIAP, cIAP (R&D systems Inc., MN, USA), c-Jun, c-Fos, JunB, JunD, Fra-1, Fra-2 (Santa Cruz Biotechnology, CA, USA) respectively, and detected by horseradish peroxidase-conjugated secondary antibody (Santa Cruz Biotechnology, CA, USA). Protein bands were recorded on X-ray film by reacting with ECL chemiluminescence reagents (Amersham Biosciences, NJ, USA). […]

[2] = tested on: HepG2 cells; experiment: Annexin V staining and flow cytometry, HepG2; type: cell-based, human; conditions: HepG2, 24 hr; TRAIL 100 ng/ml
Procedure: FIG. 22. […] HLE or HepG2 cells were incubated with DBZIM of various concentrations for 6 hr, and assayed for caspase 3/7 activity and LDH releasing (expressed as % toxicity). DBZIM induced apoptosis as characterized by annexin V staining using flow cytometer in HLE (E) and HepG2 (F). Scatter plot and histogram gave the representative information on the cell population distribution while bar graphs quantified the percentage of apoptotic cells from the histogram. HLE and HepG2 cells were treated by DBZIM of various concentrations for 24 hr before harvesting for annexin V staining and flow cytometric analysis.
HLE and HepG2 cells were treated with various concentrations of DBZIM or TRAIL (100 ng/ml) for 24 hr, harvested and labeled with Annexin V-FITC (BioVision, CA, USA). The labeled cells were analysed by flow cytometry FACSCalibur ([…], NJ, USA) and CellQuest software. Cells showing green staining in the plasma membrane were considered as apoptotic cells.

[3] = tested on: AGS; experiment: Proliferation assay (MTS), gastric cancer cell line; type: cell-based; conditions: Homo sapiens, 72 h, day 3
Procedure: Proliferation of Glioma cell lines: U87 MG and C6 under the treatment of DBZIM was examined using 3-(4,5-dimethylthiazol-2-yl)-5-(3-carboxymethoxyphenyl)-2-(4-sulfophenyl)-2H-tetrazolium (MTS) based proliferation assay kit (Promega, Wis., USA). MTS reagent was added to the control and treated cells (after 48 hr) directly and the absorbance signal was read at 490 nm using a Tecan Safire II plate reader.
The IC50 value (determined at day 3) was 50 μM for H1299 (lung cancer); 50 μM for MCF-7 (breast cancer), and 40 μM for AGS gastric cancer at day 3 (Table 3).

[4] = tested on: caspase 3, 8 and 9 in HLE cells; experiment: Protein extract based caspase 3/8/9 colorimetric assays; type: cell-based, human; conditions: 24 hr
Procedure: FIG. 23. (A). […] HLE cells were grown in a T75 flask and treated with DBZIM for 24 hr. The cells were then lysed and cytoplasmic protein was collected for assaying caspase 8, 9 and 3 using kits from Biovision. The data was normalized against the vehicle control. (B). […] HLE cells were treated by DBZIM of 1.5 mM for 24 hr. Cytosolic and mitochondria protein fractions were collected using a kit from Biovision. 15 μg of each protein was resolved in 4-12% gradient PAGE-SDS gel. The target proteins were recognized by antibody of cytochrome C, and visualized by the ECL method. The membrane was stripped and probed for the α-tubulin as the loading control for cytosolic fraction and Cox4 for mitochondria fraction.
Capspase 3/8/9 activities were determined using total protein extract as starting material (Biovision Inc., CA, USA). HLE cells were cultured in T75 flask and treated with DBZIM of various concentrations. Cytosolic protein extract was collected by pelleting and lysing the cells and centrifugation to remove the debris. Capspase 3, 8 and 9 activities were assayed using the same protein extract but adding the respective substrate. Absorbance readings were taken at 405 nm using Tecan Safire II plate reader. Results were expressed as relative caspase activity by normalizing to control cells without compound treatment.

## [Br-].c1ccc(Cn2cc[n+](Cc3ccccc3)c2)cc1 [DBZIM, 1,3-bisbenzylimidazolium bromide]
[1]
  release of cytochrome C from the mitochondria to the cytosol: minimal release
[2]
  apoptosis (annexin V staining): dose-dependently induced apoptosis
[3]
  IC50: 40 µM
[4]
  caspase 3 activity: dose-dependently enhanced
  caspase 8 activity: not affected
  caspase 9 activity: dose-dependently enhanced

From patent publication US9072729B2, “Method for treating fibrosis and cancer with imidazolium and imidazolinium compounds” (Agency for Science, Technology and Research, priority 2008, dated 2015)
